Data: the NIST ThermoML archive (doi:10.1016/j.jct.2014.03.014)
Where “and” joins values, the source holds several entries; their conditions need not be identical. Equal entries are not always repeated.

Settings: Liquid, Closed cell (Static) method

FC(F)CC(F)(F)F [1,1,1,3,3-pentafluoropropane]
Settings | vapor or sublimation pressure
293.15 K | 122.7 kPa
295.08 K | 132.2 kPa
295.57 K | 134.7 kPa
296.57 K | 139.9 kPa
297.57 K | 145.2 kPa
298.57 K | 150.6 kPa and 150.7 kPa
298.58 K | 150.7 kPa
299.61 K | 156.5 kPa
300.61 K | 162.4 kPa
301.62 K | 168.4 kPa
302.63 K | 174.6 kPa
303.15 K | 177.9 kPa
303.64 K | 181 kPa
304.64 K | 187.6 kPa
305.65 K | 194.3 kPa
306.66 K | 201.2 kPa
307.67 K | 208.3 kPa
308.68 K | 215.7 kPa
309.7 K | 223.3 kPa
310.72 K | 231.1 kPa
311.74 K | 239.1 kPa
313.15 K | 250.3 kPa
313.71 K | 255.2 kPa
315.74 K | 272.6 kPa
317.76 K | 290.8 kPa
318.78 K | 300.3 kPa
319.77 K | 309.9 kPa
321.71 K | 329.1 kPa
323.15 K | 344 kPa
323.73 K | 349.9 kPa
325.71 K | 371.6 kPa
327.68 K | 394 kPa
329.67 K | 417.9 kPa
330.68 K | 430.4 kPa
331.7 K | 443.4 kPa
333.71 K | 469.6 kPa
335.73 K | 497.1 kPa
337.74 K | 525.9 kPa
338.75 K | 540.8 kPa
339.77 K | 556.1 kPa
341.82 K | 587.9 kPa
343.82 K | 620.4 kPa
343.88 K | 621 kPa
345.87 K | 654.6 kPa
347.86 K | 689.5 kPa
348.87 K | 707.6 kPa and 707.7 kPa
349.86 K | 725.9 kPa
350.86 K | 744.6 kPa
351.87 K | 763.8 kPa
352.87 K | 783.3 kPa

CC(C)C [2-methylpropane]
Settings | vapor or sublimation pressure [kPa]
293.15 K | 302.2
293.58 K | 306.7
295.58 K | 325.6
297.58 K | 345.2
299.59 K | 365.9
301.61 K | 387.6
303.15 K | 404.7
303.62 K | 410.2
305.63 K | 433.9
307.64 K | 458.6
309.65 K | 484.2
311.66 K | 510.9
313.15 K | 531.6
313.69 K | 538.7
315.7 K | 567.9
317.73 K | 598.1
319.72 K | 629
321.75 K | 661.7
323.15 K | 685.6
323.82 K | 696.1
325.77 K | 730.9
327.73 K | 765.3
329.74 K | 802.7
331.72 K | 840.8
333.71 K | 880.5
335.74 K | 922.5
337.79 K | 966.2
339.85 K | 1011.5
341.75 K | 1054.5
343.78 K | 1102.5
343.88 K | 1105.1
345.86 K | 1153.1
347.86 K | 1204.4
349.9 K | 1256.3
351.91 K | 1309.8
353.91 K | 1365.1
